Blank lines part the entries; values can stand above or below the molecule they belong to.
Columns and labels:
IgE = conditions: cited from earlier work
IgG = conditions: cited from earlier work
[1] = rats, osteoclasia accentuated by parathormone; cited from earlier work
[2] = target: T1, cathepsin B (Sigma, C-6286) (Bos taurus, UniProt P07688); test: Inhibitory activity against cathepsin B; assay type: biochemical; conditions: Inhibitory activity against cathepsin B (Table-5)
T1 construct: purchased Sigma C-6286
Experimental: Inhibitory activity against cathepsin B (Sigma, C-6286) was determined according to a method described in a literature (Biochemical Journal, Vol. 201, p. 189, 1982).

m-Calpain = target: T2, m-Calpain (Rattus norvegicus, UniProt Q07009); test: Inhibitory activity against calpain (m-Calpain purified from brains of rats); assay type: biochemical; conditions: Inhibitory activity against calpain (continuation of Table-6)
T2 construct: m-Calpain was purified from brains of rats; from tissue; host or cells: rat brain
T2 sequence (Q07009 20-700 limits assumed): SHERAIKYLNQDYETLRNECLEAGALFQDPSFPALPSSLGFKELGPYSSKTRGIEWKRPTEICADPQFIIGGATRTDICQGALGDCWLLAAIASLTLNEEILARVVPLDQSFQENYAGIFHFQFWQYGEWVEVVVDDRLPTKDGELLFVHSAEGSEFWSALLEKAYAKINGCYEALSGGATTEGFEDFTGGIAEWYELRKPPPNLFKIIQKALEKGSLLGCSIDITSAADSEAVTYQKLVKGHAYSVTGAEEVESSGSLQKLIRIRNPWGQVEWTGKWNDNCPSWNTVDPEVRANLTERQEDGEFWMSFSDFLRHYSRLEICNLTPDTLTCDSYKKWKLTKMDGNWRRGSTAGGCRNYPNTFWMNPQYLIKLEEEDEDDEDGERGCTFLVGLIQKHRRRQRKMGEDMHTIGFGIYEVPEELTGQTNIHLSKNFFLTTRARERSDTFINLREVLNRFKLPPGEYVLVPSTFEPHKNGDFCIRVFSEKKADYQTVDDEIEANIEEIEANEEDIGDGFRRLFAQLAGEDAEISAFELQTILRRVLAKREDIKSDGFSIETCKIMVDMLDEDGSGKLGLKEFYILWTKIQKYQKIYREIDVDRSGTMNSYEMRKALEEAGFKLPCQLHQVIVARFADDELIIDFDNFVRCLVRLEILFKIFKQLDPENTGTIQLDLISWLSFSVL
T2 sequence (Q64537 1-270 partner): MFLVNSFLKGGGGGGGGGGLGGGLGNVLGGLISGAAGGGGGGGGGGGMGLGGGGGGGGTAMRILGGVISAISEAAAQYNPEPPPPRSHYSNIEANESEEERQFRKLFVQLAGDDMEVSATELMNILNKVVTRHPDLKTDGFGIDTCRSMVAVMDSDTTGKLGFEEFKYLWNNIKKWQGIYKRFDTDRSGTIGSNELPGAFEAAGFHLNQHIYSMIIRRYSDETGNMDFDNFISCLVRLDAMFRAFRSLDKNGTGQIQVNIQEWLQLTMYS
Experimental: m-Calpain was purified from brains of rats according to a method described in a literature (Journal of Biological Chemistry, Vol. 259, p. 3210, 1984), and the inhibitory activity was determined in a manner according to a published method (Journal of Biological Chemistry, Vol. 259, p. 12489, 1984).

[3] = Release of an active compound in blood: incubation in rat serum, HPLC; assay type: in vitro ADME; conditions: final concentration 100 µ M, 37°C, 5 minutes
Experimental: (2S,3S)-2-acetoxy-3-((S)-4-methyl-2-phenylsulfonylaminovalerylamino)tetrahydrofuran obtained in Example 88 was dissolved in acetonitrile and the solution was added to rat serum so that its final concentration was adjusted to 100 µ M. The mixture was incubated at 37°C for 5 minutes. The mixture was then added with acetonitrile and centrifuged, and the resulting solution portion was applied to HPLC for analysis. For comparison, solutions obtained by dissolving (3S)-3-((S)-4-methyl-2-phenylsulfonylaminovalerylamino)-2-tetrahydrofuranol obtained in Example 1 and (2S,3S)-2-acetoxy-3-((S)-4-methyl-2-phenylsulfonylaminovalerylamino)tetrahydrofuran obtained in Example 88 in acetonitrile respectively were examined by HPLC.
The HPLC conditions were as follows: Column: Nucleosil 1005 C18, 4.6×250 mm (Nagel) Column temperature: 50°C Mobile phase: CH3CN:H2O:PIC A Low UV (Waters) = 22:78:1 Flow rate: 1 ml/min Detection wavelength: UV 222 nm

[4] = Release of an active compound in blood: incubation in dog serum, HPLC; assay type: in vitro ADME; conditions: same procedure
[5] = Acute toxicity test, oral; conditions: both sexes, rat, in vivo, orally administered, suspended in 0.5% aqueous CMC-Na, SD male and female rats, observed for seven days
Description: Compounds of the present invention was suspended in 0.5% aqueous solution of CMC-Na and the suspensions were orally administered to SD male and female rats.

[6] = Release of an active compound in blood: incubation in human serum, HPLC; assay type: in vitro ADME; conditions: same procedure
[7] = tested on: experimental model of cataract; conditions: cited from earlier work
[8] = tested on: microtubule-binding proteins; conditions: after cerebral ischemia; cited from earlier work
[9] = tested on: muscular dystrophy hamsters; conditions: cited from earlier work
blood platelets = conditions: cited from earlier work
[10] = tested on: animal model of myocardial infarct; conditions: in vivo; cited from earlier work
axon = conditions: head injury model using a rat; cited from earlier work

SMILES: NC(N)=NCCCCNC(=O)[C@H](Cc1ccccc1)NC(=O)[C@H]1O[C@@H]1C(=O)O [Estatin A]
- production of IgE (IgE): specifically suppresses
- production of IgG (IgG): does not affect
- hydroxyproline concentration [1]: lowered
- serum calcium concentration [1]: lowered

SMILES: CCc1cc(C(=O)N[C@@H](CC(C)C)C(=O)N[C@H]2CCOC2O)n(C)n1 (stereo partly drawn) [Example 62, (3S)-3-{(S)-2-(3-ethyl-1-methyl-5-pyrazole)carbonylamino-4-methylvalerylamino}-2-tetrahydrofuranol]
- IC50 [2]: 500 nM
- IC50 (m-Calpain): 1000 nM

- IC50 [2]: 190 nM
- IC50 (m-Calpain): 700 nM
SMILES: COc1ccc(C=CC(=O)N[C@@H](CC(C)C)C(=O)N[C@H]2CCOC2O)cc1 (stereo partly drawn) [Example 65, (3S)-3-{(S)-2-(4-methoxycinnamoylamino)-4-methylvalerylamino}-2-tetrahydrofuranol]

- IC50 [2]: 2400 nM
- IC50 (m-Calpain): 380 nM
SMILES: CC(C)C[C@H](NS(=O)(=O)c1cccc2ccccc12)C(=O)N[C@H]1CCOC1O (stereo partly drawn) [Example 75, (3S)-3-{(S)-4-methyl-2-(1-naphtylsulfonylamino)valerylamino}-2-tetrahydrofuranol]

- IC50 [2]: 400 nM
- IC50 (m-Calpain): 1000 nM
SMILES: CC(C)C[C@H](NS(=O)(=O)c1cccnc1)C(=O)N[C@H]1CCOC1O (stereo partly drawn) [Example 77, (3S)-3-{(S)-4-methyl-2-(3-pyridylsulfonylamino)valerylamino}-2-tetrahydrofuranol]

- IC50 [2]: 1300 nM
- IC50 (m-Calpain): 780 nM
SMILES: CC(C)C[C@H](NC(=O)[C@H](CC(C)C)NS(=O)(=O)c1ccccc1)C(=O)N[C@H]1CCOC1O (stereo partly drawn) [Example 87, (3S)-3-{(S)-2-((S)-4-methyl-2-phenylsulfonylaminovalerylamino)-4-methylvalerylamino}-2-tetrahydrofuranol]

SMILES: CC(=O)O[C@@H]1OCC[C@@H]1NC(=O)[C@H](CC(C)C)NS(=O)(=O)c1ccccc1 [Example 88, (2S,3S)-2-acetoxy-3-((S)-4-methyl-2-phenylsulfonylaminovalerylamino)tetrahydrofuran]
- hydrolyzed and converted into the active form [3]: 97%
- formation of active form [4]: formations of active form were also observed
- LD50 at 7 days [5]: < 2000 mg/kg
- formation of active form [6]: formations of active form were also observed

SMILES: CC(=O)O[C@@H]1OCC[C@@H]1NC(=O)[C@H](CC(C)C)NC(=O)c1ccccc1F [Example 96, (2S,3S)-2-acetoxy-3-{(S)-2-(2-fluorobenzoylamino)-4-methylvalerylamino}tetrahydrofuran]
- LD50 at 7 days [5]: < 2000 mg/kg

SMILES: CC(=O)O[C@@H]1OCC[C@@H]1NC(=O)[C@H](CC(C)C)NS(=O)(=O)c1ccc(C)cc1 [Example 106, (2S,3S)-2-acetoxy-3-{(S)-4-methyl-2-(4-methylphenylsulfonylamino)valerylamino}tetrahydrofuran]
- LD50 at 7 days [5]: < 2000 mg/kg

SMILES: CC(C)C[C@H](NC(=O)[C@H]1O[C@@H]1C(=O)O)C(=O)NCCCCN=C(N)N [Example E-64, E-64]
- efficacy in an experimental model of cataract [7]: effective
- hydroxyproline concentration [1]: lowered
- serum calcium concentration [1]: lowered

SMILES: CC(C)CCNC(=O)[C@H](CC(C)C)NC(=O)[C@H]1O[C@@H]1C(=O)O [Example E-64-c, E-64-c]
- degradation of microtubule-binding proteins [8]: suppressed

SMILES: CCOC(=O)[C@H]1O[C@@H]1C(=O)N[C@@H](CC(C)C)C(=O)NCCC(C)C [Example E-64-d, E-64-d]
- life prolongation effect [9]: life prolongation effect
- platelet aggregation caused by thrombin (blood platelets): suppressed

SMILES: CCOC(=O)[C@@H]1O[C@H]1C(=O)NC(CC(C)C)C(=O)N1CCN(Cc2ccc(OC)c(OC)c2OC)CC1.CCOC(=O)[C@@H]1O[C@H]1C(=O)NC(CC(C)C)C(=O)N1CCN(Cc2ccc(OC)c(OC)c2OC)CC1.O=S(=O)(O)O (stereo partly shown) [NCO-700]
- efficacy in an animal model of myocardial infarct [10]: effective

SMILES: CC(=O)N[C@@H](CC(C)C)C(=O)N[C@@H](CC(C)C)C(=O)N[C@H](C=O)CCCNC(=N)N [leupeptin]
- protective effect on axon (axon): protective effect on axon was observed
